Measurements taken from patent publication US9067920B2, “Compounds useful for inhibiting Chk1” (Eli Lilly and Company, priority 2010, dated 2015).
Counter-ions that a name gives are not always drawn.

System: HT-29 colon carcinoma cells
Test: ECtfs (two-fold sensitization) assay, gemcitabine potentiation, MTS
Type: cell-based
Protocol: An inhibitor of Chk1 can potentiate the anti-proliferative activity of gemcitabine (or other cytotoxics) through abrogation of the intra-S phase checkpoint, resulting in sustained and increased DNA damage. The capacity for continued tumor cell proliferation after DNA damage can be analyzed by determining the ability of cells to replicate their DNA. […] In this assay, cells are treated with a dilution series of gemcitabine, and then 22 h later with the compound of Example 3, After an additional 44 h, the relative cell number is assessed by a MTS (3-(4,5-dimethylthiazol-2-yl)-5-(3-carboxymethoxyphenyl)-2-(4-sulfophenyl)-2H-tetrazolium) dye reduction assay. The ECtfs parameter is a measure of the concentration of a Chk1 inhibitor necessary to reduce by half the (1190 concentration of gemcitabine, measured in this assay in the absence of Chk1 inhibition. HT-29 cells (obtained from ATCC), are grown in RPMI 1640 plus 10% (v/v) heat inactivated FBS, The cells are plated at 2.5×10^3 per well, in a volume of 100 μL on 96-well tissue culture plates and incubated for 24 h. Gemcitabine dilutions are prepared at 6× concentrations in McCoy's 5A medium (modified) (1×) and added to wells at 20 μper well. Gemcitabine dilutions were set up with the highest final concentration of gemcitabine being 1.0 μM and dilutions made by three-fold steps to 0.5 nM.
Chk1 Inhibitor is prepared by dilutions in DMSO to 4000× final concentration, and then diluted 666-fold into McCoy's medium to generate 6× stocks. Chk1 inhibitor dilutions proceed by 2.5-fold steps starting at 25 nM down to 0.3 nM. Twenty-two hours 1.0 after gemcitabine addition, Chk1, inhibitor is added in a volume of 24 μL to wells containing 120 μL of medium plus gemcitabine. Each gemcitabine dilution receives a single Chk1 inhibitor dilution. Control wells received DMSO, gemcitabine, or Chk1 inhibitor alone. Forty-four hours after addition of Chk1 inhibitor, 30 μL of CellTiter 96® AQueous assay reagent, is added to each well and held at room temperature for 1 hour and 45 minutes. Absorbance is read on a SpectraMax 250 (Molecular Devices) spectrophotometer at 490 nm. Data from the SpectraMax spectrophotometer are analyzed with GraphPad Prism 4.0. First, an averaged no cell control absorbance is subtracted from all other values in the matrix of data from each plate. Next, duplicate data points are averaged. Data are normalized for each Chk1 inhibitor concentration, with 0% cell number set as corrected A490=0, and 100% cell number set as the 0 nM gemcitabine mean value. […] Gemcitabine concentrations are converted to log concentrations, and normalized cell number values are converted to percent inhibition (percent inhibition=1.00-normalized value). Transformed data are plotted, and a non-linear regression is run to estimate an IC50 value for gemcitabine at each Chk1 inhibitor concentration. The nonlinear regression is calculated allowing the slope to vary, and without constraints for the top or bottom of the dose-response curves. The ECtfs value is calculated as follows: GI50 values for gemcitabine for each Chk1 inhibitor concentration are determined, plotted, and the concentration of Chk1 inhibitor necessary to decrease the gemcitabine alone GI50 by two-fold is determined by interpolation.
Compounds within the scope of the invention are tested in this assay run substantially as above. For example, the compound of Example 3 is tested and found to have an ECtfs value of 1.0 nM (SE=0.1, n=3). […]

COc1nc(C)ccc1-c1cc(Nc2cncc(O[C@@H]3CCCNC3)n2)[nH]n1 [Example 3, (R)-[5-(2-Methoxy-6-methyl-pyridin-3-yl)-2H-pyrazol-3-yl]-[6-(piperidin-3-yloxy)-pyrazin-2-yl]-amine acetic acid salt]
decrease of the EC50 of gemcitabine (HT-29 cells, 25 nM of the compound): 7 fold | ECtfs value (HT-29 cells, concentration that decreases the gemcitabine GI50 two-fold): 1.0 nM | effect on the proliferation of HT-29 cells (compound alone, 25 nM): little effect
